# “Also recorded” adds a separate entry of the source. Where no end group is shown, it is not given here.
# T1: proteinase 3 (Homo sapiens, UniProt P24158)
# T1 construct: endogenous in cells
# T1 sequence (P24158 28-248): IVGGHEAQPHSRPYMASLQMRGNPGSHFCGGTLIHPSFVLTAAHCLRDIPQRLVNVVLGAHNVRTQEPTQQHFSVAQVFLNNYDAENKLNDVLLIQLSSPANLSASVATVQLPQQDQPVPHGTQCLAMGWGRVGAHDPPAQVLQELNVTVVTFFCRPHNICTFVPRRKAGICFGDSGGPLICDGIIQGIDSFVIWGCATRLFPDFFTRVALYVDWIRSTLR
# T2: TLR7 (Homo sapiens, UniProt Q9NYK1)
# T2 construct: PDC from healthy donors were purified from freshly collected buffy coats; endogenous in cells; host or cells: primary human pDC sorted from buffy coats of healthy donors
# T2 sequence (Q9NYK1 27-1049): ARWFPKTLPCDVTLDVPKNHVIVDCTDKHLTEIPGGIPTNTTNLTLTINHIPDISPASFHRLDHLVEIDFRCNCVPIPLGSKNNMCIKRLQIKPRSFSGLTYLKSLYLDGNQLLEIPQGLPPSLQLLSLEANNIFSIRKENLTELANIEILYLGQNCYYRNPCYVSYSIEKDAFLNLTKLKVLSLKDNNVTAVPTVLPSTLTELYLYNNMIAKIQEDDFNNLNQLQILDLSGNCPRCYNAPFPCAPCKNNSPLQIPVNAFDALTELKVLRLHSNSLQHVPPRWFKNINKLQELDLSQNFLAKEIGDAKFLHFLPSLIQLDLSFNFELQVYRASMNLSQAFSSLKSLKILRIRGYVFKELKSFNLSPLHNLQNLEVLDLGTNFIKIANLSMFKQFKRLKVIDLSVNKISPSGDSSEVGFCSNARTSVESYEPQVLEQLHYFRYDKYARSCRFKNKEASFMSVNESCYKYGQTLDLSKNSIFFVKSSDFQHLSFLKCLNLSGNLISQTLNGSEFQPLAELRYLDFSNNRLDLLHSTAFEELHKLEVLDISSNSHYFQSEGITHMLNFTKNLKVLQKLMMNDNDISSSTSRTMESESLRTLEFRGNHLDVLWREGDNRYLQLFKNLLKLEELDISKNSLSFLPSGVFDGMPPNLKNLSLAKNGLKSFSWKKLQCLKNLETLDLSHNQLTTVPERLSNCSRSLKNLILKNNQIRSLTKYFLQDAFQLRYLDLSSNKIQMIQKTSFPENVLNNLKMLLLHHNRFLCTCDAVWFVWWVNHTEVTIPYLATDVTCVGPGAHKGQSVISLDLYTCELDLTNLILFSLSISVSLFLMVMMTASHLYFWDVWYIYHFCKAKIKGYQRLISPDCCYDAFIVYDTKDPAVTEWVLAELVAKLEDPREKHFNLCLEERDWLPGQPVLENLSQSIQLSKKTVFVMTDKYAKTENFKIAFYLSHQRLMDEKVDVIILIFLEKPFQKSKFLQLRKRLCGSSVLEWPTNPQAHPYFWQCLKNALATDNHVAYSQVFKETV
# T3: TLR-9 (Homo sapiens, UniProt Q9NR96)
# T3 construct: PDC from healthy donors were purified from freshly collected buffy coats; endogenous in cells; host or cells: primary human pDC sorted from buffy coats of healthy donors
# T3 sequence (Q9NR96 26-1032): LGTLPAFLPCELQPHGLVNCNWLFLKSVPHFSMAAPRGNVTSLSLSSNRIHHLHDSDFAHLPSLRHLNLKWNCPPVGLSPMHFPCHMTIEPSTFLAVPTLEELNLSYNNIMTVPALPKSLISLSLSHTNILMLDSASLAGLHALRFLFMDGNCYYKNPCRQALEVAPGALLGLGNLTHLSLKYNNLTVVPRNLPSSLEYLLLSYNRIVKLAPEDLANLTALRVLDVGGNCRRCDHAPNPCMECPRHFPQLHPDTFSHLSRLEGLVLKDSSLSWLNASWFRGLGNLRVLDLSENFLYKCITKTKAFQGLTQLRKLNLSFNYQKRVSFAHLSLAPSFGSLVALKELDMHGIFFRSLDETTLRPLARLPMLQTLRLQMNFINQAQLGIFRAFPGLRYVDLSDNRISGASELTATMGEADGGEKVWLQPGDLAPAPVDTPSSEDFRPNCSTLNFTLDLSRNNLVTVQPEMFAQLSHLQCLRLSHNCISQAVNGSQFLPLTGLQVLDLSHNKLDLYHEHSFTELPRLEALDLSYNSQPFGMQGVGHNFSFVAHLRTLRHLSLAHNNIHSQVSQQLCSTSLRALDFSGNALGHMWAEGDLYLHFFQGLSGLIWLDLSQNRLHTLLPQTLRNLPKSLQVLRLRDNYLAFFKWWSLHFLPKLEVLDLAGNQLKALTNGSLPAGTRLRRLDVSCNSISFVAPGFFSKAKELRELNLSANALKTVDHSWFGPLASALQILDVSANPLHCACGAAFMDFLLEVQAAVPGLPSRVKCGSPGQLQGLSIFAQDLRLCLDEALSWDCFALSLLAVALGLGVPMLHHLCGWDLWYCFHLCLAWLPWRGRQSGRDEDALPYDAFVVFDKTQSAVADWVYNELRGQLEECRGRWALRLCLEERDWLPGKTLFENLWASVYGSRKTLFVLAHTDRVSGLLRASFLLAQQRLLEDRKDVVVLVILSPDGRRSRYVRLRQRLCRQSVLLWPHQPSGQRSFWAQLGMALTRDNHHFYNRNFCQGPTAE
# Key:
# [1] = tested on: plasmacytoid dendritic cells (pDC); experiment: IFN-α and cytokine production by purified human pDC (ELISA of supernatants); assay type: cell-based; conditions: for pDC activation to produce IFN-α: substance alone added to purified pDC
# Source text: (§1) PDC from healthy donors were purified from freshly collected buffy coats. Briefly, PBMC were isolated by Ficoll-Hypaque density gradient centrifugation (GE Healthcare, Piscatway, N.J.) followed by positive sorting using anti-BDCA4-conjugated magnetic microbeads (Miltenyi Biotec, Auburn, Calif.). The recovered cells were stained with PE-Cy5-conjugated anti-CD4, APC-conjugated CD11c, and a cocktail of FITC-conjugated anti-CD3, anti-CD14, anti-CD16, anti-CD15, anti-CD20 and anti-CD56 (Lineage-FITC) (BD Pharmingen, San Diego, Calif.). The CD4+CD11c-Lin- (pDC precursors) were isolated by cell sorting. Purity was routinely >99%. PDC (5-10×10^4/well) were cultured in 96-well round-bottom plates in RPMI 1640 (GIBCO, Carlsbad, Calif.) supplemented with 10% FCS (Atlanta Biologicals, Lawrenceville, Ga.). Where indicated, pDC were stimulated with CpGA (1 μM), CpGB (1 μM), R837 (10 ug/ml), IRS (4 uM), non-CpG sequence (4 uM), and different concentrations of LL-37 and of human genomic DNA. To prepare LL-37.DNA complexes, CpGB, huDNA, non-CpG and LL-37 were mixed by inversion and incubated for 30 min at room temperature before being added to the cells.
# (§2) Supernatants samples were taken after 18-24 h after addition of the stimuli. Human IFN-α was measured using a human IFN-α ELISA kit (PBL Biomedical Laboratories, New Brunswick, N.J.) according to the company's instructions. IL-6 and TNF-α were detected using a kit for human IL6 and TNF-α (R&D Systems), respectively.
# pDC [2] = experiment: pDC viability; assay type: cell-based, human; conditions: not shown
# [3] = tested on: LL-37-mediated activation of pDC; experiment: Inhibition of LL-37-mediated IFN-α induction in pDC; assay type: cell-based, human; conditions: pDC stimulated with LL-37 (10 μM) in presence of the substance
# Protocol: (§3) (A) pDC were stimulated with LL-37 (10 μM) in the presence of pertussis toxin (PTX) or KN62 to block the FPRL-1 and the P2X pathway respectively. Furthermore agonistic W peptide and ATP were used to stimulate these pathways on pDC. (B) pDC were stimulated with LL-37 (10 μM) in the presence of increasing concentrations of chloroquine to block the endosomal TLR pathway. (C) PDC were pre-treated DNase I, TLR-9 inhibitor (IRS, 4 μM) or ctrl ODN sequences for 30 min and followed by incubation with LL-37 (10 μM), CpG 2216 (CpGA, 1 μM) or imiquimod (R837,10 μg/ml) for 24 h (A). The culture supernatants were analyzed for IFN-α production by ELISA. One representative experiment of three is shown.
# Heparin (an anionic sugar) was preincubated for ½ h with LL-37 before stimulating pDC (thus associating with self-DNA released by dying cells in culture) or before adding genomic human DNA and subsequently stimulating pDC.
# as §1, §2
# proteinase 3 = target: T1, proteinase 3; experiment: Cleavage of LL-37 from propeptide hCAP18 in activated neutrophils (Western blot); assay type: cell-based; conditions: pretreatment of neutrophils, PMA activation
# pDC [4] = experiment: pDC stimulation by supernatant of activated neutrophils (type I IFN); assay type: cell-based, human; conditions: neutrophils pretreated with inhibitor
# Source text: (Left panel) IFN-α released by pDC stimulated with NET w/o Pr-3 inhibitors, CpG, w/o Pr-3 inhibitors is used as positive control.
# These findings indicate that proteinase 3 inhibitors block the generation of the mature LL-37 peptide, thus inhibiting the LL-37-mediated break of innate tolerance to self-nucleic acids.
# human genomic DNA = experiment: Complex formation with DNA (ethidium bromide intercalation, size exclusion HPLC); assay type: binding
# Source text: (A) Emission spectra of human genomic DNA intercalated with Ethimidium bromide in the presence of increasing doses of LL-37. (B) Size exclusion HPLC of LL-37 alone, mut-LL-37 alone or DNA premixed with LL-37 or mut-37. […] Absorbance scales are different to accommodate the DNA peak.
# TLR7 = target: T2, TLR7; experiment: Inhibition of IFN-α induction in pDC by TLR7 agonist imiquimod; assay type: cell-based
# Protocol: as §3
# (§4) PDC from healthy donors were purified from freshly collected buffy coats. Briefly, PBMC were isolated by Ficoll-Hypaque density gradient centrifugation (GE Healthcare, Piscatway, N.J.) followed by positive sorting using anti-BDCA4-conjugated magnetic microbeads (Miltenyi Biotec, Auburn, Calif.). […]
# as §2
# TLR-9 = target: T3, TLR-9; experiment: Inhibition of IFN-α induction in pDC by TLR-9 agonist CpG sequences; assay type: cell-based
# Protocol: as §3, §4, §2
molecule,measurement,setting,value
"Nc1ncnc2c1ncn2[C@@H]1O[C@H](COP(=O)(O)OP(=O)(O)OP(=O)(O)O)[C@@H](O)[C@H]1O [ATP, Adenosin triphopshate]",pDC activation to produce IFN-α,[1],did not result in IFN-α production by pDC
CCN(CC)CCCC(C)Nc1ccnc2cc(Cl)ccc12 (stereo not drawn) [Chloroquine],Effect on pDC viability,pDC [2],no measurable effect on pDC viability
same,Effect on IFN-α induction by LL-37 in pDC,[3],inhibited LL-37-mediated IFN-α induction in a dose-dependent manner
CC(C)C[C@H](NC(=O)[C@@H](NC(=O)N[C@@H](Cc1ccccc1)C(=O)O)[C@@H]1CCN=C(N)N1)C(=O)N[C@H](C=O)Cc1ccccc1 [Chymostatin],Cleavage of the 4 kD LL-37 peptide from hCAP18,proteinase 3,can be blocked; also recorded: block the cleavage of LL-37 from its propeptide hCAP
same,Capacity of activated neutrophils to stimulate pDC to produce type I IFNs,pDC [4],abrogated; also recorded: inhibit the activation of pDC by self-DNA released by neutrophils
"CN([C@@H](Cc1ccc(OS(=O)(=O)c2cccc3cnccc23)cc1)C(=O)N1CCN(c2ccccc2)CC1)S(=O)(=O)c1cccc2cnccc12 [KN62, KN-62]",Effect on IFN-α induction by LL-37 in pDC,[3],did not inhibit IFN-α induction by LL-37
DNase I,Effect on IFN-α induction by LL-37 in pDC,[3],significantly inhibited
GGGGGACGATCGTCGGGGGG [CpGA],"IFN-α induction by pDC, single stranded form complexed to LL-37",[1],restored
same,"IFN-α induction by pDC, single stranded form (heat and flash cooling)",[1]; multimeric complex disrupted,strongly inhibited
"HBD-3: AMP cultured with pDC at equimolar doses (GIINTLQKYYCRVRGGRCAVLSCLPKEEQIGKCSTRGRKCCRRKK; ends and bridges not checked; cysteine pairing not given here; UniProt P81534 23-67, looked up)",pDC activation to produce IFN-α,[1],did not induce pDC activation to produce IFN-α
LLGDFFAVSKEKIGAEFVRIVQAIKDFLRNLVPRTES [mLL-37],pDC activation to produce IFN-α,[1],complete abrogation of pDC activation
same,pDC activation to produce IFN-α,[1]; listed as mutated LL-37 peptide,did not induce IFN-α
same,Complex formation with DNA,human genomic DNA,not able to complex with DNA
MeOSuc-CMK,Cleavage of the 4 kD LL-37 peptide from hCAP18,proteinase 3,can be blocked; also recorded: block the cleavage of LL-37 from its propeptide hCAP
same,Capacity of activated neutrophils to stimulate pDC to produce type I IFNs,pDC [4],abrogated; also recorded: inhibit the activation of pDC by self-DNA released by neutrophils
Pertussis Toxin [PTX],Effect on IFN-α induction by LL-37 in pDC,[3],did not inhibit IFN-α induction by LL-37
TCGTCGTTTTGTCGTTTTGTCGTT [phophodiesteric CpG-B],"IFN-α production by pDC stimulated with nucleic acid alone or combined with LL-37, as labelled",[1],unable to induce IFN-α
TCGTCGTTTTGTCGTTTTGTCGTT [phosphothiorate CpG-B],"IFN-α production by pDC stimulated with nucleic acid alone or combined with LL-37, as labelled",[1],induced significant levels of IFN-α
"TTTAGGGTTAGGGTTAGGGTTAGGG (listed as DNA, chemistry not given here) [IRS]",Effect on IFN-α induction by TLR7 agonist imiquimod in pDC,TLR7,not TLR7 agonist imiquimod
same,Effect on IFN-α induction by TLR-9 agonist CpG sequences in pDC,TLR-9,block IFN-α induction by TLR-9 agonist CpG-sequences
same,Effect on IFN-α induction by LL-37 in pDC,[3],inhibited pDC activation to produce IFN-α
WKYMV-peptide [W peptide],pDC activation to produce IFN-α,[1],did not result in IFN-α production by pDC
heparin,Effect on IFN-α induction by LL-37 in pDC,[3],completely abrogated; also recorded: inhibits the ability of LL-37 to induce IFN-α
"S100-7: AMP cultured with pDC at equimolar doses (protein, UniProt P31151 2-101, looked up) Protein S100-A7: SNTQAERSIIGMIDMFHKYTRRDDKIEKPSLLTMMKENFPNFLSACDKKGTNYLADVFEKKDKNEDKKIDFSEFLSLLGDIATDYHKQSHGAAPCSGGSQ",pDC activation to produce IFN-α,[1],did not induce pDC activation to produce IFN-α

# Reference: patent US20120315290A1, “INHIBITORS OF LL-37 MEDIATED IMMUNE REACTIVITY TO SELF NUCLEIC ACIDS” (BOARD OF REGENTS, THE UNIVERSITY OF TEXAS SYSTEM, priority 2006, published 2012)
